Data taken from US20050090471A1, “Inhibitors of cyclin-dependent kinases, compositions and uses related thereto” (GPC Biotech, Inc, priority 2001, published 2005).

Test system: HCT-116 cells
Test: Clonogenic survival assay with HCT-116 cells
Assay type: cell-based
Conditions: Homo sapiens, 24 h exposure, read-out: HCT-116 IC50 clonogenic 24 h
Experimental: This assay was used to determine the concentration of a compound that results irreversible loss of viability after a specified period of exposure.
Media (RPMI-1640, 10% FCS, pen/strep) was pre-warnied to 37° C. in a water bath. Cells were incubated and grown at 37° C., 5% CO2. Cells were recovered by trypsinization from sub-confluent plates and counted using a hemocytometer. 1×10^4 cells were plated in 25 mls of media in a 15 cm tissue culture dish. 14 plates were set up for each test compound, and were incubated overnight at 37° C. The compound was diluted into media at 7 concentrations and the media on the cells was replaced with that containing the test compound. Two plates were set up for each concentration of the compound to be tested, as well as two control plates without compound. […] Colonies were stained with crystal violet solution (0.4% crystal violet, 20 % ethanol) for 5 minutes, washed twice with distilled water, and counted.

CC(C)N1CCN(Cc2cc(-c3[nH]nc4c3C(=O)c3c(NC(=O)NN5CCOCC5)cccc3-4)ccc2O)CC1.Cl.Cl.Cl.Cl [K]
IC50: < 1 µM
